Measurements reported in article PMC12677607, “Identification of a Pair of Linear or Cyclic Naturally Inspired Bifunctional Lipopeptide Antibiotics That Overcome Antimicrobial Resistance” (Advanced Science, 2025).
Values after ≈ are worked out from the molar mass of the structure shown. Bridge positions count the residues as written; N and C are the ends. Square brackets hold non-standard residues; d marks the D form. Peptide text beside a SMILES is read from it. * marks the point of attachment. Myristoyl = CCCCCCCCCCCCCC(=O)*; Orn = NCCC[C@H](N)C(=O)O; Dab = NCC[C@H](N)C(=O)O; Dap = NC[C@H](N)C(=O)O

How the values were obtained:
[1] = test system: S. aureus USA300 Cls2A338stop; test: MIC against telomycin-resistant mutant; format: cell-based
Protocol: (§1) All MIC assays were performed two independent times (n = 2) in 96‐well plates using a broth micro‐dilution method. The lowest concentration of that inhibited visible microbial growth was recorded as the MIC value.
(§2) For most of bacterial strains, overnight cultures were diluted 5000‐fold in LB broth. For E. faecium and S. aureus, overnight cultures were diluted 1000‐ and 10000‐fold in LB broth, respectively. 100 µL of diluted cells was mixed with 100 µL of LB broth containing each peptide ranging from 64 to 0.125 µg mL^−1 at 2‐fold serial dilutions.
(§3) Overnight cultures S. aureus USA300 were diluted 10000‐fold in LB broth, and 100 µL of dilute cell suspension was added to 96‐well plates containing 100 µL serially diluted aquicidine C4, telomycin, and daptomycin (with 15 mM CaCl2). Overnight cultures K. pneumoniae CRKP5452 were diluted 5000‐fold in LB broth, and 100 µL of dilute cell suspension was added to 96‐well plates containing 100 µL serially diluted aquicidine L and colistin. After an incubation of 24 h at 37 °C, the MIC value was determined. […] The MIC value was recorded as described above, and the process was repeated daily for 21 days. Experiments were performed two independent times (n = 2).
(§4) Single‐nucleotide polymorphisms (SNPs) for telomycin‐, daptomycin‐ or colistin‐resistant mutants were identified using SNIPPY by mapping DNBSEQ‐seq reads to the reference genome of S. aureus USA300 or K. pneumoniae CRKP5452.

[2] = test system: S. aureus USA300; test: Raising resistant mutants by direct plating; format: cell-based
[3] = test system: S. aureus USA300; test: Scanning electron microscopy of treated cultures; format: cell-based; conditions: 4× the MIC, after 180 min of treatment
[4] = test system: S. aureus USA300; test: Resistance acquisition by serial passaging; format: cell-based; conditions: S. aureus USA300, sub-MIC levels, daily passage for 21 days, n = 2
Protocol: as §3

[5] = test system: vancomycin-resistant E. faecium 35682; test: Mouse peritonitis-sepsis model; format: in vivo; conditions: E. faecium 35682, ICR mice, single s.c. dose 1 h after infection, doses 50, 100, 150 mg kg^−1, n = 5
Protocol: Six‐week‐old female ICR mice were used in all experiments and housed in a temperature‐controlled room (25 °C) with 12‐h light/dark cycle and 30% relative humidity. Mice were observed twice daily for mortality and morbidity. Abnormal clinical signs were recorded if observed and totally monitored for five days. The detailed methods for the mouse peritonitis‐sepsis model were as follows.
Vancomycin‐resistant E. faecium 35682 was cultured in BHI broth at 37 °C fro 16 h and diluted with 5% type II porcine stomach mucin and 0.9% NaCl. E. faecium cell cultures were diluted to provide a challenge inoculum of 4.0 × 10^9 CFU in 0.5 mL and then administered into each mouse via intraperitoneal injection. 25 mice were randomly grouped into five per cohort (n = 5) and each cohort was given a single dose of either vehicle (20% solutol), aquicidine C4 at 50, 100 or 150 mg/kg and daptomycin at 100 mg kg^−1 with 15 mM CaCl2 1 h after infection via subcutaneous injection.

[6] = test system: methicillin-resistant S. aureus USA300; test: Neutropenic thigh infection model; format: in vivo, mouse; conditions: 50 mg kg^−1 s.c. at 2, 10, 18 h, burden at 24 h, n = 8 thighs
Protocol: (§5) Six‐week‐old female ICR mice were used in all experiments and housed in a temperature‐controlled room (25 °C) with 12‐h light/dark cycle and 30% relative humidity. Meropenem‐resistant A. baumannii 1104008 or methicillin‐resistant S. aureus USA300 was cultured in the MH broth containing 50 µg mL^−1 of gentamycin and the MH broth, respectively, at 37 °C and 200 rpm overnight. Then, the strains A. baumannii 1104008 or S. aureus USA300 were washed twice in 0.9% saline and further diluted to verify the bacterial suspension with a challenge inoculum of ≈1.0 × 10^6 CFU in a volume of 0.05 mL per mouse thigh. Mice were rendered neutropenic by receiving 150 and 100 mg kg^−1 of cyclophosphamide via intraperitoneal injection on day‐4 and day‐1 before infection, respectively. For treating the thigh infection caused by A. baumannii 1104008, mice were given 100 µL of vehicle (20% solutol), colistin (25 mg kg^−1, 20% solutol), or aquicidine L (25 mg kg^−1, 20% solutol) at 2, 8, 14, and 20 h after post‐infection via subcutaneous injection. […] All mice were observed after infection for morbidity, and any abnormal signs were recorded. […] The treatment efficacies of aquicidine L or C4 were determined as the bacterial burden reduction in the thighs relative to both the vehicle and colistin‐ or vancomycin‐treated controls. All graphic data were analyzed using the GraphPad Prism software (Prism10).

[7] = test system: Acinetobacter baumannii P53; test: microbe, parasite or virus in culture; format: cell-based; conditions: Table S11; LB broth, 37 °C, 16 h, n = 2
Outline: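 MIC = lowest peptide concentration with no visible growth; LB broth microdilution, n = 2. Inoculum: overnight culture diluted 5000× (S. aureus 10000×). Peptides serially diluted 2-fold, 64–0.125 µg mL^−1 in the broth added to cells.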

[8] = test system: K. pneumoniae CRKP 5452 PhoQL348Q; test: MIC against colistin-resistant mutant; format: cell-based
Protocol: as §1, §2, §3, §4

[9] = test system: K. pneumoniae 15580; test: MIC against colistin-resistant strain; format: cell-based; conditions: Figure S127a
Protocol: as §1, §2

[10] = test system: K. pneumoniae CRKP5452; test: Resistance acquisition by serial passaging; format: cell-based; conditions: K. pneumoniae CRKP5452, sub-MIC levels, daily passage for 21 days, n = 2
Protocol: as §3

[11] = test system: meropenem-resistant A. baumannii 1104008; test: Neutropenic thigh infection model; format: in vivo, mouse; conditions: A. baumannii 1104008 thigh, 25 mg kg^−1 s.c. at 2, 8, 14, 20 h, burden at 24 h, n = 8 thighs
Protocol: as §5

| Compound | antibacterial activity (MIC) S. aureus USA300 Cls2A338stop ([1]; Figure S127b, telomycin-resistant mutant) [µg/mL] | increase in MIC against resistant mutant compared to wild type ([1]; S. aureus USA300 Cls2^A338stop vs wild type) [fold] | increase in MIC of colonies from direct plating on antibiotic-containing solid media [2] | scanning electron microscopy, cell lysis [3] | increase of MIC during serial passaging [4] | minimal dose required for 100% survival [5] [mg/kg] | reduction in CFUs compared with the vehicle [6] [log10] | MIC Acinetobacter baumannii P53 [7] [µg/mL] | antibacterial activity (MIC) K. pneumoniae CRKP 5452 PhoQL348Q ([8]; Figure S127a, colistin-resistant mutant from serial passaging) [µg/mL] | increase in MIC against resistant mutant compared to wild type ([8]; K. pneumoniae CRKP5452 PhoQ^L348Q vs wild type) [fold] | antibacterial activity (MIC) K. pneumoniae 15580 [9] [µg/mL] | increase of MIC during serial passaging [10] | reduction in CFUs compared with the vehicle [11] [log10] |
| --- | --- | --- | --- | --- | --- | --- | --- | --- | --- | --- | --- | --- | --- |
| CCCCCCCCCCCCCC(=O)N[C@@H](CN)C(=O)N[C@H](C(=O)N[C@@H](CC(C)C)C(=O)N[C@H]1COC(=O)[C@H](Cc2ccccc2)NC(=O)[C@H](CC(N)=O)NC(=O)[C@H](CCCN)NC(=O)[C@H]([C@@H](C)CC)NC(=O)[C@H](Cc2ccccc2)NC(=O)[C@H](CN)NC(=O)[C@H](CCN)NC1=O)[C@@H](C)O [synAQU5-C4] (Myristoyl-[Dap]TLS[Dab][Dap]FI[Orn]NF; ester 4-C) | 16 | 4 | did not show more than a one‐fold increase in MIC | lysed the majority of cells | no higher than twofold | 100 | 3 | – | – | – | – | – | – |
| CCCCCCCCCCCCCC(=O)N[C@@H](CN)C(=O)N[C@H](C(=O)N[C@@H](CC(C)C)C(=O)N[C@@H](CO)C(=O)N[C@@H](CCN)C(=O)N[C@@H](CN)C(=O)N[C@@H](Cc1ccccc1)C(=O)N[C@H](C(=O)N[C@@H](CCCN)C(=O)N[C@@H](CC(N)=O)C(=O)N[C@@H](Cc1ccccc1)C(=O)O)[C@@H](C)CC)[C@@H](C)O [synAQU5-L] (Myristoyl-[Dap]TLS[Dab][Dap]FI[Orn]NF-OH) | – | – | – | – | – | – | – | 8 (≈ 5.56 µM) | 16 | 4 | 8 | no higher than two‐fold | 3 |
